Assay results as given in ChEMBL document CHEMBL3098080, “Replacement of amide with bioisosteres led to a new series of potent adenosine A2A receptor antagonists” (Bioorg Med Chem Lett, 2014).

What was measured:
Adenosine receptor A2a [1] = biological target: T1, Adenosine receptor A2a (Homo sapiens, UniProt P29274); assay: Inhibition of adenosine A2A receptor (unknown origin) at 100 umol/L relative to control
Adenosine receptor A2a [2] = biological target: T1, Adenosine receptor A2a; assay: Displacement of [3H]-ZM241385 from human adenosine A2A receptor expressed in HEK293 cells; format: cell-based
[3] = Chemical stability in 0.2N HCl in methanol after 24 hrs; format: physicochemical

T1 sequence (P29274 whole entry): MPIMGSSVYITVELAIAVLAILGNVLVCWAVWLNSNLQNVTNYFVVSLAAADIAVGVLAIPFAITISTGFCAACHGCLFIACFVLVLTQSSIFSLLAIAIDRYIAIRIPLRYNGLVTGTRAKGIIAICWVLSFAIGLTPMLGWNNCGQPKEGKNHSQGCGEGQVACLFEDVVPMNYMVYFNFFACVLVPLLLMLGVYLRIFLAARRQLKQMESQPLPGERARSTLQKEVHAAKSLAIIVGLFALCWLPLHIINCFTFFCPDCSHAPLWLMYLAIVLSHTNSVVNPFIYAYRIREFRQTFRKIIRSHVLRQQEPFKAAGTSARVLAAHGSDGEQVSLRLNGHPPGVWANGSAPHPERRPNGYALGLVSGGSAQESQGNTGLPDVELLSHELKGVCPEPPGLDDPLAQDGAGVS

| Structure (SMILES) | inhibition (Adenosine receptor A2a [1]) | Ki (Adenosine receptor A2a [2]) | Stability [3] |
| --- | --- | --- | --- |
| Cc1cc(C)n(-c2nc(Nc3ncccn3)cc(-n3cccn3)n2)n1 | 23% | – | – |
| COC[C@H]1CCCN1c1cc(Nc2ncccn2)nc(-n2nc(C)cc2C)n1 | 71% | – | – |
| Cc1cc(C)n(-c2nc(Nc3nccs3)cc(N3CCc4ccccc4C3)n2)n1 | 117% | 66 nM | – |
| Cc1cc(C)n(-c2nc(Nc3nccs3)cc(-n3cccn3)n2)n1 | 58% | – | – |
| Cc1cc(C)n(-c2nc(NCC(F)(F)F)cc(N3CCc4ccccc4C3)n2)n1 | 64% | – | – |
| Cc1cc(C)n(-c2nc(Nc3ncccn3)cc(N3CCc4ccccc4C3)n2)n1 | -5% | – | – |
| COC[C@H]1CCCN1c1cc(Nc2cnccn2)nc(-n2nc(C)cc2C)n1 | 124% | 69 nM | Stable |

The remaining compounds from weak to strong by Ki (Adenosine receptor A2a [2]), led by results:

| inhibition (Adenosine receptor A2a [1]) | Ki (Adenosine receptor A2a [2]) | Stability [3] | Structure (SMILES) |
| --- | --- | --- | --- |
| 95% | 65 nM | – | Cc1cc(C)n(-c2nc(Nc3ccccn3)cc(N3CCc4ccccc4C3)n2)n1 |
| 117% | 52 nM | – | Cc1cc(C)n(-c2nc(NCC(F)(F)F)cc(-n3cccn3)n2)n1 |
| 124% | 45 nM | Stable | COC[C@H]1CCCN1c1cc(Nc2ccccn2)nc(-n2nc(C)cc2C)n1 |
| 117% | 43 nM | – | Cc1cc(C)n(-c2nc(Nc3cnccn3)cc(-n3cccn3)n2)n1 |
| 115% | 24 nM | Stable | COC[C@H]1CCCN1c1cc(NCC(F)(F)F)nc(-n2nc(C)cc2C)n1 |
| 123% | 15 nM | – | COC[C@H]1CCCN1c1cc(NC(C)=O)nc(-n2nc(C)cc2C)n1 |
| 123% | 9.5 nM | Stable | COC[C@H]1CCCN1c1cc(Nc2nccs2)nc(-n2nc(C)cc2C)n1 |
| 117% | 9.2 nM | – | Cc1cc(C)n(-c2nc(Nc3ccccn3)cc(-n3cccn3)n2)n1 |
| 121% | 1.1 nM | – | Cc1cc(C)n(-c2nc(Nc3cnccn3)cc(N3CCc4ccccc4C3)n2)n1 |
| 120% | 1 nM | – | COCCOc1ccc(N2CCN(CCn3ncc4c3nc(N)n3nc(-c5ccco5)nc43)CC2)cc1 [PRELADENANT] |
